{
  "source": "patent US20080255186A1",
  "about": "“Pyrazolo[3,4-B]Pyridine Compound, and Its Use as a Pde4 Inhibitor” (priority 2005, published 2008)",
  "target": "T1, PDE6 (from bovine retina) (Bos taurus, UniProt P11541+P23439)",
  "T1 construct": "PDE6 can be purified from bovine retina; from tissue; host or cells: bovine retina",
  "T1 sequence (P11541 2-856 limits assumed)": "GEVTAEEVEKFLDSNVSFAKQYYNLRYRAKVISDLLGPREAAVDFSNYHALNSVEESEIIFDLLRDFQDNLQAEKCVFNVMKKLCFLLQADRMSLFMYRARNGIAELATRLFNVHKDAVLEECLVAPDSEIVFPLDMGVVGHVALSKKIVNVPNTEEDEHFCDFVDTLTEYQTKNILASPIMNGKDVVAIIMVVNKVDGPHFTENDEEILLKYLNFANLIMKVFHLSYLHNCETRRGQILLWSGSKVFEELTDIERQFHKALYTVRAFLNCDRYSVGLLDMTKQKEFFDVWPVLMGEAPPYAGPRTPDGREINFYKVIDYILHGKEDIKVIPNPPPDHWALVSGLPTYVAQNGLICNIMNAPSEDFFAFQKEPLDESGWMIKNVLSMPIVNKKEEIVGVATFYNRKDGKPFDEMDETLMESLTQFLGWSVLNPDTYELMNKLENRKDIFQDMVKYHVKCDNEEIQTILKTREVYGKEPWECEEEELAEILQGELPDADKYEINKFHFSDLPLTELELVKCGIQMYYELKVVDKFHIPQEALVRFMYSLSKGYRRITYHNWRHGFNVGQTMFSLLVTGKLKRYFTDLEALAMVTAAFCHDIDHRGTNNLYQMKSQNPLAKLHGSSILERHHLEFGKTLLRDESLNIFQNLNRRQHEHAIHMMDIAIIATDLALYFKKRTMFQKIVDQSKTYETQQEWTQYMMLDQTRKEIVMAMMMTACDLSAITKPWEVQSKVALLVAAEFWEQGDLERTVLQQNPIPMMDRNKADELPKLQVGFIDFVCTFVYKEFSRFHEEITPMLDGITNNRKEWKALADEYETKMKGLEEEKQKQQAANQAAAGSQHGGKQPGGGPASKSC",
  "T1 sequence (P23439 2-850 limits assumed)": "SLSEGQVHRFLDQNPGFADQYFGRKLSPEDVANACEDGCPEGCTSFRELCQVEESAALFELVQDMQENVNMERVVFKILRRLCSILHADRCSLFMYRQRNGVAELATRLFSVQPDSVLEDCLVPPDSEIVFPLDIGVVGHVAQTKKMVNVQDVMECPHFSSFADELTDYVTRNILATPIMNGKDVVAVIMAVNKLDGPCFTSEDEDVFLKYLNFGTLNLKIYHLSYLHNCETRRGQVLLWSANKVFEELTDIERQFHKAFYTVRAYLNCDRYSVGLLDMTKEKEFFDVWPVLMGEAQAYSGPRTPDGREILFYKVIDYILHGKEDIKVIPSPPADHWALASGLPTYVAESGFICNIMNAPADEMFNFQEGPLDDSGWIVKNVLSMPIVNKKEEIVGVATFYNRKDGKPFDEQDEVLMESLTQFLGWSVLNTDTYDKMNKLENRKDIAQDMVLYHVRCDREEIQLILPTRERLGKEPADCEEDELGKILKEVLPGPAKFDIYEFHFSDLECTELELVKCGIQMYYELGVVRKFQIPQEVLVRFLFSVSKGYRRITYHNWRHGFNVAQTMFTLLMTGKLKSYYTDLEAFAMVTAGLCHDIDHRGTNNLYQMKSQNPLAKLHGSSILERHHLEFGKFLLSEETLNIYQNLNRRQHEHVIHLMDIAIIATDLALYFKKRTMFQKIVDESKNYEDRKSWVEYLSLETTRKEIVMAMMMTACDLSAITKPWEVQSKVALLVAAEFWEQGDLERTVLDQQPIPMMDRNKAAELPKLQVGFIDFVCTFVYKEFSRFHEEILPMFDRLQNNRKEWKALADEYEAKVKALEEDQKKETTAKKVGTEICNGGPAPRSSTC",
  "assay": "PDE6 inhibition (FP or SPA general type of assay)",
  "type": "biochemical",
  "conditions": "in the particular assays used",
  "source_text": "PDE6 can be purified from bovine retina as described by: P. Catty and P. Deterre, “Activation and solubilization of the retinal cGMP-specific phosphodiesterase by limited proteolysis”, Eur. J. Biochem., 1991, 199, 263-269; A. Tar et al. “Purification of bovine retinal cGMP phosphodiesterase”, Methods in Enzymology, 1994, 238, 3-12; and/or D. Srivastava et al. “Effects of magnesium on cyclic GMP hydrolysis by the bovine retinal rod cyclic GMP phosphodiesterase”, Biochem. J., 1995, 308, 653-658.\nThe ability of compounds to inhibit catalytic activity at PDE4B or 4D (human recombinant), PDE3 (from bovine aorta), PDE5 (human recombinant) or PDE6 (from bovine retina) can optionally be determined by Scintillation Proximity Assay (SPA) in a 96-well format.\nTest compounds (as a solution in DMSO, suitably about 2 microlitre (ul) volume of DMSO solution) are preincubated at ambient temperature (room temperature, e.g. 19-23° C.) in Wallac Isoplates (code 1450-514) with PDE enzyme in 50 mM Tris-HCl buffer pH 7.5, 8.3 mM MgCl2, 1.7 mM EGTA, 0.05% (w/v) bovine serum albumin for 10-30 minutes (usually 30 minutes). […] Bound radioactive product is measured using a WALLAC TRILUX 1450 Microbeta scintillation counter. […] Curves are analysed using ActivityBase and XLfit (ID Business Solutions Limited, 2 Ocean Court, Surrey Research Park, Guildford, Surrey GU2 7QB, United Kingdom). […]",
  "data": [
    {"smiles": "CCc1nc2c(cnn2CC)c(NC2CCOCC2)c1CNC(=O)c1cc(C)no1", "note": "[Example 1, N-{[1,6-diethyl-4-(tetrahydro-2H-pyran-4-ylamino)-1H-pyrazolo[3,4-b]pyridin-5-yl]methyl}-3-methyl-5-isoxazolecarboxamide]", "values": [
      {"measurement": "PDE4B pIC50 compared with PDE6 pIC50 (selectivity)", "value": "inhibits PDE4B more strongly than it inhibits PDE3, PDE5 and PDE6"}
    ]}
  ]
}
